Experimental data reported in patent US9636299B2, “Method for treating diabetic retinopathy” (XAVIER UNIVERSITY OF LOUISIANA, priority 2012, dated 2017).
Residues, ends and D or L forms follow the SMILES beside them.

Legend:
[1] = system: LRP-1; experiment: LRP-1 expression in high sugar induced hRMECs (Western blot); assay type: cell-based, human; conditions: high sugar induced serum starved hRMECs, 1% apoEdp, 24 hours
Method: Using an anti-LRP-1 antibody (human LRP-1; 1:1000, Santa Cruz Biotechnology, CA) and Western blot analysis, selective inhibition of LRP-1 by apoEdp treatment (24 hours) in serum starved hRMECs cells was shown.

[2] = system: heparan sulfate (HS); experiment: Heparan sulfate shedding in high glucose-treated hRMECs (Western blot); assay type: cell-based, human; conditions: 30 mM glucose 72 hours, 50 or 100 μM apoEdp
Excerpt: (§1) Cell Culture. Primary cultures of human retina microvascular endothelial cells (hRMECs) were purchased from the Applied Cell Biology Research Institute and grown on attachment factor-coated plates in cell systems complete (CSC) medium (Cell Systems, Kirkland, Wash.) supplemented with 20% fetal bovine serum, culture boost (animal derived growth factors) and bac-off (antibiotics). The primary hRMECs were used in their passages 4 to 6. The 18-a.a. apoE mimetic peptide apoEdp (SEQ ID NO:3, Ac-LRKLRKRLLLRKLRKRLL-amide), derived from the human apolipoprotein E receptor-binding region (see SED ID NO:1) between residues 141 and 149, was synthesized (Genemed, Arlington, Tex.) with a purity of greater than 95%. The apoEdp peptide was dissolved in phosphate-buffered saline (“PBS”) at a concentration appropriate for further experimental use. […]
(§2) Western Blotting. […] The total protein concentration was determined using a BCA protein assay kit (Pierce, Rockford, Ill.). […] To ensure the equal loading of protein in each lane, each membrane was stripped and re-probed with an antibody against β-actin, and the chemiluminescence was detected as described previously. After scanning the blots with a flatbed scanner, band intensities were analyzed using ImageJ (NIH) and the relative intensity values were normalized to control values. […]

[3] = system: occludin; experiment: Occludin expression in high glucose-treated hRMECs (Western blot); assay type: cell-based, human
Excerpt: as §1, §2

[4] = Corneal permeability of topical 1% apoEdp eye drops in mice, UPLC-MS of pooled aqueous and vitreous humor; assay type: in vivo; design: key to Meas'd conc. / Total: *: No peak detected
Method: The apoEdp peptide (SEQ ID NO:3) is rich in cationic amino acids, and the inventor postulated that it may cross the cornea into the anterior and posterior chambers of the eye. […] Thus, apoEdp can be used for non-invasive treatment of posterior eye diseases.
A one percent (1%) solution comprising apoEdp in PBS was prepared. This solution was applied bilaterally via eyedropper to the eyes of mice (n=4). The mice were sacrificed at 0, 1, 2, or 3 hours after application of the solution, and the eyes were enucleated. The aqueous and vitreous humor from each eye was collected and pooled, mixed with 1 mL of 0.1% formic acid solution, and allowed to stand for 5 minutes. The samples were then filtered with a 0.2 μm filter and analyzed with the Acquity UPLC system (Waters Corp., Milford, Mass.) with mass spectrophotometric detection.
Initially, the mass range for the peptide was scanned several peaks corresponding to different charged states of the peptide were found. These peaks included 484.9 m/z, 604.4 m/z, and 805.6 m/z. The 484.9 peak was used for the analysis because it was the strongest peak. For the UPLC analysis, a 2.1 mm×100 mm×1.7 μm BEH300 C4 column was used. A two-component mobile phase was used with component 1 (C1): 0.1% formic Acid, and Component 2 (C2): Acetonitrile with 0.1% formic acid. The flow rate was 0.2 mL/min and gradient elution was used with a linear gradient (see TABLE 2). Retention time for the peptide was 4.6 minutes.

[5] = OD (right eye), 0 h after topical 1% apoEdp
[6] = OD (right eye), 1 h after topical 1% apoEdp
[7] = OD (right eye), 2 h after topical 1% apoEdp
[8] = OD (right eye), 3 h after topical 1% apoEdp
[9] = OS (left eye), 1 h after topical 1% apoEdp
[10] = OS (left eye), 2 h after topical 1% apoEdp
[11] = OS (left eye), 3 h after topical 1% apoEdp

- Meas'd conc. [4, 5]: *
- Total [4, 5]: *
- Meas'd conc. [4, 6]: 0.022 µg/mL
- Total [4, 6]: 22.2 ng
- Meas'd conc. [4, 7]: 0.006 µg/mL
- Total [4, 7]: 5.9 ng
- Meas'd conc. [4, 8]: 0.036 µg/mL
- Total [4, 8]: 36.3 ng
- Total ([4]; OS (left eye), 0 h after topical 1% apoEdp): *
- Meas'd conc. ([4]; OS (left eye), 0 h after topical 1% apoEdp in PBS, pooled aqueous and vitreous humor): *
- Meas'd conc. [4, 9]: *
- Total [4, 9]: *
- Meas'd conc. [4, 10]: 0.004 µg/mL
- Total [4, 10]: 3.89 ng
- Meas'd conc. [4, 11]: 0.058 µg/mL
- Total [4, 11]: 58.08 ng
Structure (SMILES): CC(=O)N[C@@H](CC(C)C)C(=O)N[C@@H](CCCNC(=N)N)C(=O)N[C@@H](CCCCN)C(=O)N[C@@H](CC(C)C)C(=O)N[C@@H](CCCNC(=N)N)C(=O)N[C@@H](CCCCN)C(=O)N[C@@H](CCCNC(=N)N)C(=O)N[C@@H](CC(C)C)C(=O)N[C@@H](CC(C)C)C(=O)N[C@@H](CC(C)C)C(=O)N[C@@H](CCCNC(=N)N)C(=O)N[C@@H](CCCCN)C(=O)N[C@@H](CC(C)C)C(=O)N[C@@H](CCCNC(=N)N)C(=O)N[C@@H](CCCCN)C(=O)N[C@@H](CCCNC(=N)N)C(=O)N[C@@H](CC(C)C)C(=O)N[C@@H](CC(C)C)C(N)=O [apoEdp, Ac-LRKLRKRLLLRKLRKRLL-amide] (Ac-LRKLRKRLLLRKLRKRLL-NH2)
- Upregulation of LRP-1 [1]: inhibiting the upregulation
- High glucose-induced shedding of HS [2]: reduced the shedding
- Occludin expression versus 30 mM glucose alone ([3]; hRMECs co-incubated with 100 μM apoEdp and 30 mM glucose): greater levels of occludin
- High glucose-induced loss of tight junction protein occludin ([3]; hRMECs, 30 mM glucose 72 hours, 50 or 100 μM apoEdp): reduced
- Detection of topically-applied apoEdp inside the eye (cornea penetration) ([4]; topical 1% apoEdp): detected inside the eye in as little as one hour after application
